Earlier results, collected in patent publication US20040131543A1, “Radiopharmaceuticals and radioactive microspheres for locoregional ablation of abnormal tissues” (priority 2002, published 2004).

Details: single intratracheal instillation, rats

- Half-life of Gd deposited in lung tissue: extremely long half-life
SMILES: [Cl][Gd]([Cl])[Cl] [GdCl3, Gd chloride]
